# Where two headings read alike, the source gives them in different places.
# Key:
# HCV [1] = settings: chimpanzee, 7 days, cited from earlier work
# Replicon = settings: cited from earlier work
# [2] = rat, in vivo, po, 50 mg/kg; cited from earlier work
# [3] = rat, in vivo, po, 50 mg/kg
# HCV [4] = settings: phase 2 study, 1500 mg BID for 14 days; cited from earlier work
# [5] = molecular target: T1, Hepatitis C virus NS5B polymerase (Hepatitis C virus genotype 1b, UniProt Q9WMX2); settings: compound tested as its triphosphate; read-out: NS5b IC50 of NTP; cited from earlier work
# T1 construct: Hepatitis C virus NS5B polymerase is an RNA-dependent RNA polymerase (RdRp)
# T1 sequence (Q9WMX2 2420-3010): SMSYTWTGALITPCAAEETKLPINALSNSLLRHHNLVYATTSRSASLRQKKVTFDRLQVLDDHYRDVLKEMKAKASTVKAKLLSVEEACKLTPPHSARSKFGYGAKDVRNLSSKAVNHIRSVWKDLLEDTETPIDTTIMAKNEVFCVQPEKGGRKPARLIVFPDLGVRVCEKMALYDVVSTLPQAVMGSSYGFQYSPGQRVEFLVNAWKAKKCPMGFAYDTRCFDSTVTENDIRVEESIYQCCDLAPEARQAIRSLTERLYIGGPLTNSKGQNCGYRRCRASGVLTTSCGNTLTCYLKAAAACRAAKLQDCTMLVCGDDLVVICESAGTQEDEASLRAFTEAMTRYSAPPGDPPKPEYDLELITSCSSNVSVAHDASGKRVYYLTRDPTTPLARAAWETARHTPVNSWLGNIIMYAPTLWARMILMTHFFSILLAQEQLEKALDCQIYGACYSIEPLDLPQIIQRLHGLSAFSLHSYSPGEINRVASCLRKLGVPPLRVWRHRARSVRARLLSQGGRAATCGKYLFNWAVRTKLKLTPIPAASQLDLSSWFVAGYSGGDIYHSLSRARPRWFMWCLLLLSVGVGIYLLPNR
smiles,measurement,setting,value
CC(C)[C@H](N)C(=O)O[C@@H]1[C@@H](CO)O[C@@H](n2ccc(N)nc2=O)[C@]1(C)O [NM283],reduction in viral titre,HCV [1]; 16.6 mg/kg/day,1.15 log10
COC(=O)[C@H](C)NP(=O)(OC[C@H]1O[C@@H](n2ccc(=O)[nH]c2=O)[C@](C)(F)[C@@H]1O)Oc1ccccc1 (stereo partly drawn) [PSI-7672],EC50,Replicon,1600 nM
C[C@@]1(O)[C@H](O)[C@@H](CO)O[C@H]1n1ccc2c(N)ncnc21 [MK-0608],reduction in viral titre,HCV [1]; intravenous 2 mg/kg/day,> 5 log10
CC(C)OC(=O)[C@H](C)NP(=O)(OC[C@H]1O[C@@H](n2ccc(=O)[nH]c2=O)[C@](C)(F)[C@@H]1O)Oc1ccccc1 (stereo partly drawn) [PSI-7851],liver triphosphate levels,[2],2550 ng/g
same,liver triphosphate level converted to molar units,[3],5.1 nmol/g
CC(C)C(=O)OC[C@@]1(N=[N+]=[N-])O[C@@H](n2ccc(N)nc2=O)[C@H](OC(=O)C(C)C)[C@@H]1OC(=O)C(C)C [Compound 81626],mean reduction in serum viral titre,HCV [4],1.2 log10
"C[C@@]1(F)[C@H](O)[C@@H](CO)O[C@H]1n1ccc(N)nc1=O [PSI-6130, β-D-2′-deoxy-2′-fluoro-2′-C-methylcytidine]",IC50,[5],130 nM
same,EC50,Replicon,600 nM
same,activity in the replicon assay,Replicon,potent
"C[C@@]1(F)[C@H](O)[C@@H](CO)O[C@H]1n1ccc(=O)[nH]c1=O [RO2433, 2′-deoxy-2′-fluoro-2′-C-methyl-uridine]",IC50,[5],520 nM
same,EC50,Replicon,> 100000 nM
same,activity in the replicon assay,Replicon,inactive
